Results taken from patent US20130123481A1, “MODIFIED NUCLEOSIDES, NUCLEOTIDES, AND NUCLEIC ACIDS, AND USES THEREOF” (MODERNA THERAPEUTICS, priority 2011, published 2013).
Like-named read-outs stand apart in the source and are kept apart here.

Tests used:
[1] = system: peripheral blood mononuclear cells (PBMC); test: In Vitro Screening in PBMC - G-CSF protein expression; assay type: cell-based, human; conditions: background about 110 pg/ml
Source text: (§1) The supernatant was harvested and stored frozen until analyzed by ELISA to determine the G-CSF protein expression, and the induction of the cytokines interferon-alpha (IFN-α) and tumor necrosis factor alpha (TNF-α).

[2] = system: peripheral blood mononuclear cells (PBMC), interferon-alpha (IFN-α); assay type: cell-based, human; conditions: IFN-alpha, background about 70 pg/ml
Source text: as §1

[3] = system: HeLa cells; test: In vitro Screening in HeLa Cells - luciferase (RLU); assay type: cell-based, human; parameters: key to Protein (Luc; HeLa): the protein production of HeLa is judged by “+,” “+/−” and “−”; the protein production of HeLa is judged by “+,” “+/−” and “−”; the protein production of HeLa is judged by “+,” “+/−” and “−”
Method: The 2′Fluoro-modified mRNA were then transfected into HeLa cells to assess protein production in a cell context and the same mRNA were also assessed in a cell-free rabbit reticulocyte system. A control of unmodified luciferase (natural luciferase) was used for both transcription experiments, a control of untreated and mock transfected (Lipofectamine 2000 alone) were also analyzed for the HeLa transfection and a control of no RNA was analyzed for the rabbit reticulysates.
For the HeLa transfection experiments, the day before transfection, 20,000 HeLa cells (ATCC no. CCL-2; Manassas, Va.) were harvested by treatment with Trypsin-EDTA solution (LifeTechnologies, Grand Island, N.Y.) and seeded in a total volume of 100 ul EMEM medium (supplemented with 10% FCS and 1× Glutamax) per well in a 96-well cell culture plate (Corning, Manassas, Va.). The cells were grown at […] in 5% CO2 atmosphere overnight. […] Lipofectamine 2000 (LifeTechnologies, Grand Island, N.Y.) was used as transfection reagent and 0.2 ul were diluted in 10 ul final volume of OPTI-MEM. After […] of incubation at room temperature, both solutions were combined and incubated an additional 15 minute at room temperature. Then the 20 ul combined solution was added to the 100 ul cell culture medium containing the HeLa cells and incubated at room temperature. After 18 to 22 hours of incubation cells expressing luciferase were lysed with 100 ul of Passive Lysis Buffer (Promega, Madison, Wis.) according to manufacturer instructions. Aliquots of the lysates were transferred to white opaque polystyrene 96-well plates (Corning, Manassas, Va.) and combined with 100 ul complete luciferase assay solution (Promega, Madison, Wis.). The lysate volumes were adjusted or diluted until no more than 2 mio relative light units (RLU) per well were detected for the strongest signal producing samples and the RLUs for each chemistry tested are shown in Table 42. The plate reader was a BioTek Synergy H1 (BioTek, Winooski, Vt.). The background signal of the plates without reagent was about 200 relative light units per well.
To evaluate using of 2′fluoro-modified mRNA in combination with other modification a series of mRNA were transcribed using either wild-type T7 polymerase (non-fluoro-containing compounds) or using mutant T7 polymerases (fluyoro-containing compounds) as described in Example 86. All modified mRNA were tested by in vitro transfection in HeLa cells.
After 18 to 22 hours of incubation cells expressing luciferase were lysed with 100 ul of Passive Lysis Buffer (Promega, Madison, Wis.) according to manufacturer instructions. Aliquots of the lysates were transferred to white opaque polystyrene 96-well plates (Corning, Manassas, Va.) and combined with 100 ul complete luciferase assay solution (Promega, Madison, Wis.). The lysate volumes were adjusted or diluted until no more than 2 mio relative light units (RLU) per well were detected for the strongest signal producing samples and the RLUs for each chemistry tested are shown in Table 44. The plate reader was a BioTek Synergy H1 (BioTek, Winooski, Vt.). The background signal of the plates without reagent was about 200 relative light units per well.

[4] = molecular target: wild-type T7 polymerase (Escherichia phage T7, UniProt P00573); test: In Vitro Transcription with Wild-Type T7 Polymerase (transcription and capping yield); conditions: Pass/Fail; for IVT (G-CSF) / IVT (Luc): Table 47 naturally occurring; for IVT (G-CSF) / IVT (G-CSF), first result: G-CSF mRNA in vitro transcription; for IVT (Luc) / IVT (Luc), first result: luciferase mRNA in vitro transcription; for IVT (G-CSF), first result / IVT (Luc), first result: Table 48 non-naturally occurring
Chain of wild-type T7 polymerase (P00573 whole entry): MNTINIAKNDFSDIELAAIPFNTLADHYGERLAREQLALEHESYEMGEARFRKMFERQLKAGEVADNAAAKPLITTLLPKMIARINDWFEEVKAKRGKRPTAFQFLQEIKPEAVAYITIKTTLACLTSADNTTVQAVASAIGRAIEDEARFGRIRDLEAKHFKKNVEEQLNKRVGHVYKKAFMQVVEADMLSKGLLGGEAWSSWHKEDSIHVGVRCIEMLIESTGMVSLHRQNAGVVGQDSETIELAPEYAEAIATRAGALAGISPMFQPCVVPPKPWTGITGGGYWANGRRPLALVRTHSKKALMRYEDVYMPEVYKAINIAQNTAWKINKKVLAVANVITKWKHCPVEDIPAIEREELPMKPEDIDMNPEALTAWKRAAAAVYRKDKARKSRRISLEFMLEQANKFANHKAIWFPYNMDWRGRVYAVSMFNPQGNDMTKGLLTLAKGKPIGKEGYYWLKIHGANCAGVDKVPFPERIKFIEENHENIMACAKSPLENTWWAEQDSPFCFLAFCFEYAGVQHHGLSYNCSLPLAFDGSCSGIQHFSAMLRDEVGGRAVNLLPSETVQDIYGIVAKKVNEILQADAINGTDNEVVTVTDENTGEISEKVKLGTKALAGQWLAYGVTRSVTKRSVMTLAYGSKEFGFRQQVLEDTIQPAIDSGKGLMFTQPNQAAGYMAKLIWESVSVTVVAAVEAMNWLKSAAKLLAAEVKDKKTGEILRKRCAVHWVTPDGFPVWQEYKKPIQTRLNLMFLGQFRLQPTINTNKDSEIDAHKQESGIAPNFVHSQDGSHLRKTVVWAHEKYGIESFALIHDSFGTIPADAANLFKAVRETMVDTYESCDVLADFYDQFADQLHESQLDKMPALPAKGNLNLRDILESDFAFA
Method: The luciferase and G-CSF modified mRNA were also subjected to an enzymatic capping reaction and each modified mRNA capping reaction was evaluated for yield by spectrophometic measurement (OD260) and correct size assessed using bioanalyzer.

[5] = system: HeLa cells; test: G-CSF expression in HeLa cells (ELISA); assay type: cell-based, human; parameters: key to Protein (G-CSF; HeLa): the protein production of HeLa is judged by “+,” “+/−” and “−”; the protein production of HeLa is judged by “+,” “+/−” and “−”; the protein production of HeLa is judged by “+,” “+/−” and “−”
Method: To assess the activity of all our different chemical modifications in the context of a second open reading frame, we replicated experiments previously conducted using luciferase mRNA, with human G-CSF mRNA. […] The mutant T7 polymerase was obtained commercially (Durascribe® T7 Transcription kit (Cat. No. DS010925) (Epicentre®, Madison, Wis.).
The modified RNA in Tables 45 and 46 were transfected in vitro in HeLa cells or added to rabbit reticulysates (250 ng of modified mRNA) as indicated. […] In Table 45, “NT” means not tested.

[6] = Stability of Modified RNA - storage, gel electrophoresis; assay type: physicochemical
Method: Stability experiments were conducted to obtain a better understanding of storage conditions to retain the integrity of modified RNA. […] After the mRNA had been stored for 0 hours, 2 hours, 6 hours, 24 hours, 48 hours, 5 days and 14 days, the mRNA was analyzed by gel electrophoresis using a Bio-Rad EXPERION™ system. The modified, unmodified and lipoplexed G-CSF mRNA was also stored in RNASTABLE® (Biomatrica, Inc. San Diego, Calif.) at 40° C. or water at −80° C. or 40° C. for 35 days before being analyzed by gel electrophoresis.

[7] = Table 47 naturally occurring, *** = production seen in cell free translations
[8] = Table 48 non-naturally occurring
[9] = Table 48 non-naturally occurring, ** mutant T7 polymerase

Molecule	Protein (G-CSF; PBMC) ([1]; Table 47 naturally occurring)	Cytokines (G-CSF; PBMC) ([2]; Table 47 naturally occurring)	Protein (Luc; HeLa) [3, 7]	IVT (G-CSF) [4]	IVT (Luc) [4]	Protein (G-CSF; HeLa) [5, 7]	further results
O=c1[nH]cc([C@@H]2O[C@H](CO)[C@@H](O)[C@H]2O)c(=O)[nH]1 [pseudouridine (Y)]	++ (“++” means greater than 1,500 pg/ml G-CSF)	+ (“+” means greater than 100 pg/ml IFN-alpha)	+	Pass	Pass	+	
O=c1ccn([C@@H]2O[C@H](CO)[C@@H](O)[C@H]2O)c(=S)[nH]1 [2-thiouridine (s^2U)]	+ (“+” means greater than 300 pg/ml G-CSF)	+ (“+” means greater than 100 pg/ml IFN-alpha)	−	Pass	Pass	+	
Cn1cc([C@@H]2O[C@H](CO)[C@@H](O)[C@H]2O)c(=O)[nH]c1=O [1-methylpseudouridine (m^1Y)]	++++ (“++++” means greater than 6,000 pg/ml G-CSF)	− (“−” means less than 100 pg/ml)	+	Pass	Pass		
5-Br-Uridine [Compound 5-Br-Uridine]							Protein (G-CSF; PBMC) [1, 8]: + (“+” means greater than 300 pg/ml G-CSF); Cytokines (G-CSF; PBMC) [2, 8]: + (“+” means greater than 100 pg/ml IFN-alpha); Protein (Luc; HeLa) [3, 9]: +; IVT (G-CSF), first result [4]: Pass; IVT (Luc), first result [4]: Pass; Protein (G-CSF; HeLa) [5, 8]: +
Nc1nc(=O)n([C@@H]2O[C@H](CO)[C@@H](O)[C@H]2O)cc1C=O [5-formylcytidine (f^5C)]		+ (“+” means greater than 100 pg/ml IFN-alpha)	−***	Pass	Pass	−***	
COC(=O)C=Cc1cn([C@@H]2O[C@H](CO)[C@@H](O)[C@H]2O)c(=O)[nH]c1=O [5-(2-carbomethoxyvinyl) Uridine]							Protein (G-CSF; PBMC) [1, 8]: +/− (“+/−” means 150-300 pg/ml G-CSF); Cytokines (G-CSF; PBMC) [2, 8]: − (“−” means less than 100 pg/ml); Protein (Luc; HeLa) [3, 9]: −; IVT (G-CSF), first result [4]: Pass; IVT (Luc), first result [4]: Pass; Protein (G-CSF; HeLa) [5, 8]: −
N^6-methyladenosine (m^6A)	+/− (“+/−” means 150-300 pg/ml G-CSF)	++++ (“++++” means greater than 1,000 pg/ml interferon-alpha (IFN-alpha))	−	Pass	Pass	−	
Modified G-CSF mRNA: G-CSF mRNA fully modified with 5-methylcytosine and pseudouridine, with or without lipoplex (0.75% RNAIMAX) (nucleic acid, listed as Homo Sapiens, 5mC/pseudoU; Cap1; polyA tail) GGGAAAUAAGAGAGAAAAGAAGAGUAAGAAGAAAUAUAAGAGCCACCAUGGCCGGUCCCGCGACCCAAAGCCCCAUGAAACUUAUGGCCCUGCAGUUGCUGCUUUGGCACUCGGCCCUCUGGACAGUCCAAGAAGCGACUCCUCUCGGACCUGCCUCAUCGUUGCCGCAGUCAUUCCUUUUGAAGUGUCUGGAGCAGGUGCGAAAGAUUCAGGGCGAUGGAGCCGCACUCCAAGAGAAGCUCUGCGCGACAUACAAACUUUGCCAUCCCGAGGAGCUCGUACUGCUCGGGCACAGCUUGGGGAUUCCCUGGGCUCCUCUCUCGUCCUGUCCGUCGCAGGCUUUGCAGUUGGCAGGGUGCCUUUCCCAGCUCCACUCCGGUUUGUUCUUGUAUCAGGGACUGCUGCAAGCCCUUGAGGGAAUCUCGCCAGAAUUGGGCCCGACGCUGGACACGUUGCAGCUCGACGUGGCGGAUUUCGCAACAACCAUCUGGCAGCAGAUGGAGGAACUGGGGAUGGCACCCGCGCUGCAGCCCACGCAGGGGGCAAUGCCGGCCUUUGCGUCCGCGUUUCAGCGCAGGGCGGGUGGAGUCCUCGUAGCGAGCCACCUUCAAUCAUUUUUGGAAGUCUCGUACCGGGUGCUGAGACAUCUUGCGCAGCCGUGAAGCGCUGCCUUCUGCGGGGCUUGCCUUCUGGCCAUGCCCUUCUUCUCUCCCUUGCACCUGUACCUCUUGGUCUUUGAAUAAAGCCUGAGUAGGAAG							freeze/thaw cycles tolerated [6]: 12 freeze/thaw cycles; stable out to ([6]; stored at 25° C.): 120 h; stable out to ([6]; stored at 37° C.): 24 h; stable out to ([6]; stored at 50° C.): 6 h
